Calls of active or inactive are those of the source.
Key:
[1] = inhibitors of intracellular T. cruzi replication, confirmation, NIH3T3 host cells, beta-gal luminescence (AID 2044); assay type: functional, cell-based;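 also: intracellular parasites grown in NIH/3T3 mouse fibroblasts as host cells; luminescent beta-galactosidase reporter signal from transgenic T. cruzi replicating inside host cells; inhibitors lower the luminescence signal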
[2] = cytotoxicity toward NIH3T3 fibroblasts, dose response, counter-screen, cell-based, ATP luminescence, mouse fibroblasts (AID 2010); assay type: functional;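 also: cells exposed to compound for about 90 hours before reading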
[3] = molecular target: T1, Low molecular weight phosphotyrosine protein phosphatase (Homo sapiens, UniProt P24666); assay type: functional; conditions: read-out: IC50_Mean
T1 sequence (P24666 whole entry): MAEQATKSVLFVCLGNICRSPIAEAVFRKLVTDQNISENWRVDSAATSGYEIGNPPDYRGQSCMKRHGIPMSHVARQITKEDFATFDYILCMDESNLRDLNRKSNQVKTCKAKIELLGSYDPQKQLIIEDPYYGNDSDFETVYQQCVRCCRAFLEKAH

[4] = molecular target: T1, Low molecular weight phosphotyrosine protein phosphatase; assay type: functional; conditions: read-out: IC50_Mean; remark: listed apart in the source
[5] = molecular target: Aryl hydrocarbon receptor (Homo sapiens, UniProt P35869); conditions: Potency;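 also: confirmatory quantitative high-throughput screen measuring activation of the AhR signaling pathway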
[6] = AlphaScreen signal interference compounds, dose response, artefact control for ARNT-TACC3 interaction inhibitor project, biochemical, luminescence, cherry-pick (AID 651705); assay type: functional;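 also: AlphaScreen bead proximity signal that flags compounds interfering with the detection technology; potency reflects signal decrease which marks the compound as an assay artifact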
[7] = molecular target: Nuclear receptor subfamily 5 group A member 2 (Homo sapiens, UniProt O00482); assay type: functional, cell-based;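 also: HEK293T cells transfected with LRH-1 and a StAR promoter luciferase reporter; potency for inhibitors that lower LRH-1 driven reporter light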
Nuclear receptor subfamily 5 group A member 2, sequence (O00482 whole entry): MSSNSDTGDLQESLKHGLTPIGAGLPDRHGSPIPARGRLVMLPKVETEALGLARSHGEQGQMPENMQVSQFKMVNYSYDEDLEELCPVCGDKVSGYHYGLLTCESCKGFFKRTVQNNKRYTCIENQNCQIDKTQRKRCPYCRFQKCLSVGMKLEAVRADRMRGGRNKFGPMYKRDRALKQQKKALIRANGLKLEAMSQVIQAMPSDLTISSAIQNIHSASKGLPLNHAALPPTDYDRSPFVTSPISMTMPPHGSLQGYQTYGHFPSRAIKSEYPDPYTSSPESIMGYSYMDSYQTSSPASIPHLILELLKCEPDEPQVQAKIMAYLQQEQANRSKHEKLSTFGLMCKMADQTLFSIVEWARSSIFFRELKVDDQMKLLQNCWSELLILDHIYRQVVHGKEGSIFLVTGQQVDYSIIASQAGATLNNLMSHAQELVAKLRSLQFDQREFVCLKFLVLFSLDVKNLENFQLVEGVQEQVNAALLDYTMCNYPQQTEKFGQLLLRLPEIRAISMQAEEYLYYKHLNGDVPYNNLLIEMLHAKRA

Steroidogenic factor 1 = Steroidogenic factor 1 (Homo sapiens, UniProt Q13285); experiment: Counterscreen for inverse agonists of the liver receptor homolog-1 (LRH-1; NR5A2): Luminescence-based cell-based high throughput dose response assay to identify inverse agonists of the Steroidogenic Factor 1 Nuclear Receptor (SF1; NR5A1).; assay type: functional
Steroidogenic factor 1, sequence (Q13285 whole entry): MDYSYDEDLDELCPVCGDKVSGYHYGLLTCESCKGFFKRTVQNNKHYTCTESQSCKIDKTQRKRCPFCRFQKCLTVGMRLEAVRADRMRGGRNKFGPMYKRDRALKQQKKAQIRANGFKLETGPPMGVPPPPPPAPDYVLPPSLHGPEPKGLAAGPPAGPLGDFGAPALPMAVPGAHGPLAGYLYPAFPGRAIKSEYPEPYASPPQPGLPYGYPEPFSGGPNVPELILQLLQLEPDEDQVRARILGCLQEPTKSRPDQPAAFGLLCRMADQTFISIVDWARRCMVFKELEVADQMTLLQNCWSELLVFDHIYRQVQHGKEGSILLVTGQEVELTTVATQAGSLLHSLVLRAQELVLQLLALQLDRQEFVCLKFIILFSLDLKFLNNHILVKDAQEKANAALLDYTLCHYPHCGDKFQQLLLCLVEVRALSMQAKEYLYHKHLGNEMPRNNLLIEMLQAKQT

[8] = StAR promoter reporter inhibition counter-screen, dose response, counter-screen for LRH-1 inverse agonist project, cell-based, luminescence, luciferase reporter (AID 651969); assay type: functional
[9] = molecular target: DNA (cytosine-5)-methyltransferase 1 (Homo sapiens, UniProt P26358); experiment: DNMT1 methyltransferase inhibitors, confirmation, biochemical, fluorescent molecular beacon (AID 602386); assay type: functional
DNA (cytosine-5)-methyltransferase 1, sequence (P26358 whole entry): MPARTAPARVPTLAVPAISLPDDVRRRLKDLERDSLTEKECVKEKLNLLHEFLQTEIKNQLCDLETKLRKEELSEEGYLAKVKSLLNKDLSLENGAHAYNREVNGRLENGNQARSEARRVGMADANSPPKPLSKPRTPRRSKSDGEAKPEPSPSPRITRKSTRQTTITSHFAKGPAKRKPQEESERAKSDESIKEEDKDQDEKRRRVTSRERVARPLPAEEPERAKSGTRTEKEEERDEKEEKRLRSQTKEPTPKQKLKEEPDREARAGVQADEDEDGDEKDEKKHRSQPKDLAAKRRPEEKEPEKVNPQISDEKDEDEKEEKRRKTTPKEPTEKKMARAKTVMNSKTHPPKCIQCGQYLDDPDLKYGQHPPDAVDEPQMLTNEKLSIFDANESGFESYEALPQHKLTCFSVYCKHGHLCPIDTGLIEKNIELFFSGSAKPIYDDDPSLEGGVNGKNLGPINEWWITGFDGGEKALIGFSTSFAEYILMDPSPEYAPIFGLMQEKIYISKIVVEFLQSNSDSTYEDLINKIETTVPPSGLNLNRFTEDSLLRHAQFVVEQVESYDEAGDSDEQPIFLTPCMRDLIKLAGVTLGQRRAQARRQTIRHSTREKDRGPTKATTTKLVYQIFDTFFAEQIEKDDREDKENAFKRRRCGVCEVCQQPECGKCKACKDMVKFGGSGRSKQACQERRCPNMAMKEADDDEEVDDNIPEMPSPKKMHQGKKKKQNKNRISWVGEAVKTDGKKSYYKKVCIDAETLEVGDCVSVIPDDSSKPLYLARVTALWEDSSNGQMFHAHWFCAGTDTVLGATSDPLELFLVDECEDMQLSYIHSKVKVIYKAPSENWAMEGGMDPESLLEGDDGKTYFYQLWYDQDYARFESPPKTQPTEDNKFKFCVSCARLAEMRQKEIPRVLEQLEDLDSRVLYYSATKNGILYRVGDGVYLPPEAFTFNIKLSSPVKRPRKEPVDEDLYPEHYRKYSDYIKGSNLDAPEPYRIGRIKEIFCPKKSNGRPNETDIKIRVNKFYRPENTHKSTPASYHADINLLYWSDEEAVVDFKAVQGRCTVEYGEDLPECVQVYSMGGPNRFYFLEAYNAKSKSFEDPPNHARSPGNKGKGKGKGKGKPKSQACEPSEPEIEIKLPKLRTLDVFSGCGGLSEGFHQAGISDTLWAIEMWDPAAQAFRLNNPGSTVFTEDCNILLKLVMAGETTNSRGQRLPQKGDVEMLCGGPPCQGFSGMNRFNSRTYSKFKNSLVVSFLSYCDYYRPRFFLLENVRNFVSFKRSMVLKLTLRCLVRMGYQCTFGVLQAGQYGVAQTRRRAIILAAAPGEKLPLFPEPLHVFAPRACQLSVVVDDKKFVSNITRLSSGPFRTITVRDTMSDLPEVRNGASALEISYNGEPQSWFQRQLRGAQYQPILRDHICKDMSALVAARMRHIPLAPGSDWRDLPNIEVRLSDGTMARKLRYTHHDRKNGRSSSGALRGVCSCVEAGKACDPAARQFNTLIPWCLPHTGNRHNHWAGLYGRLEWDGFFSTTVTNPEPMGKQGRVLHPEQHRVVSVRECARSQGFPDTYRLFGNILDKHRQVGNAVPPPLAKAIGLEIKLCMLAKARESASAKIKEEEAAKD

[10] = molecular target: T2, Histone-lysine N-methyltransferase NSD2 (Homo sapiens, UniProt O96028); assay type: biochemical
T2 sequence (O96028 whole entry): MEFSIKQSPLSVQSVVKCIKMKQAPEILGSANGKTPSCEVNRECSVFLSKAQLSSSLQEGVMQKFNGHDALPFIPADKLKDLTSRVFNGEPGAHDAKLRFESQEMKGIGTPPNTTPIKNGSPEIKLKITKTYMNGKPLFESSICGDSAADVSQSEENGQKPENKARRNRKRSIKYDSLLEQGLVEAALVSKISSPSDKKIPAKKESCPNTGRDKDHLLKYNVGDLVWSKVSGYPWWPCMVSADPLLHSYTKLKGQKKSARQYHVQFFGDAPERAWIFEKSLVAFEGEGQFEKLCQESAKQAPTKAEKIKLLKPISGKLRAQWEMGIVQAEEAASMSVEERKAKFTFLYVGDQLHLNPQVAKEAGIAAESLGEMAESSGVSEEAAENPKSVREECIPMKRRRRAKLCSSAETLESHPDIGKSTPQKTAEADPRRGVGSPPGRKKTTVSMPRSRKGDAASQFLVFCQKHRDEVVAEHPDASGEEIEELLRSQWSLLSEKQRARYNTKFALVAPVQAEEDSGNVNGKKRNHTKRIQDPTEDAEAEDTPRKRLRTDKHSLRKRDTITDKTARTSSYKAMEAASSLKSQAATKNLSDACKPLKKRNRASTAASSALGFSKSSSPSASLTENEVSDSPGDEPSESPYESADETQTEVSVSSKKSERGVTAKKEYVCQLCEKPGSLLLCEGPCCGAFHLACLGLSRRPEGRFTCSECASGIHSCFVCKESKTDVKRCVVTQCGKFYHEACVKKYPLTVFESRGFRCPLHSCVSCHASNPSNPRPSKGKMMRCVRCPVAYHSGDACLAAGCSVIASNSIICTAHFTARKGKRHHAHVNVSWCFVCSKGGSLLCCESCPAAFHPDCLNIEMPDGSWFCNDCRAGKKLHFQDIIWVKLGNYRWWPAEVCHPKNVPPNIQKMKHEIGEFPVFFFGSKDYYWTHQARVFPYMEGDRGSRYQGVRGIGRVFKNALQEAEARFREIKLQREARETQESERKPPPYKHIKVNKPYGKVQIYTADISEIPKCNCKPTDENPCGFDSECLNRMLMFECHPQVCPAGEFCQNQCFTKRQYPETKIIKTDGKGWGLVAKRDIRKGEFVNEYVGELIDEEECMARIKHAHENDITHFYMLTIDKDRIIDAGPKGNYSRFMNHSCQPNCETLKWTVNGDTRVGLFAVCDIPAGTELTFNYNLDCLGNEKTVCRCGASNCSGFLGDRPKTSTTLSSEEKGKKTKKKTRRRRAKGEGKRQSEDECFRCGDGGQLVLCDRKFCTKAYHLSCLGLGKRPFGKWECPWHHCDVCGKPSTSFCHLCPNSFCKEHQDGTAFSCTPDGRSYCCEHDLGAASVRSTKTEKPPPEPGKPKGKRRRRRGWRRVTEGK

[11] = molecular target: T3, RNA-binding protein pos-1 (Caenorhabditis elegans, UniProt G5EF15); experiment: inhibitors of POS-1/mex-3 RNA binding, dose response, biochemical, fluorescence polarization (AID 1964);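 also: purified POS-1 fused to maltose binding protein made in E. coli; potency of compounds blocking POS-1 binding to fluorescent RNA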
T3 sequence (G5EF15 whole entry): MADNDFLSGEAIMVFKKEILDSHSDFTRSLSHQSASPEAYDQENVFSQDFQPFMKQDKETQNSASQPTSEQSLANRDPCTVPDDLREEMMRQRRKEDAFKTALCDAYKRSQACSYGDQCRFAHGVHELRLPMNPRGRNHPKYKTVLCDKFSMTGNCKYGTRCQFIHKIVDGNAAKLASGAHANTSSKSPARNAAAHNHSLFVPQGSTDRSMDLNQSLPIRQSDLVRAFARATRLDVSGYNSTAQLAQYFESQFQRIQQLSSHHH

[12] = molecular target: T4, Zinc finger protein mex-5 (Caenorhabditis elegans, UniProt Q9XUB2); experiment: MEX-5/TCR-2 RNA interaction inhibitors, dose response, biochemical, C. elegans, fluorescence polarization (AID 1960)
T4 sequence (Q9XUB2 whole entry): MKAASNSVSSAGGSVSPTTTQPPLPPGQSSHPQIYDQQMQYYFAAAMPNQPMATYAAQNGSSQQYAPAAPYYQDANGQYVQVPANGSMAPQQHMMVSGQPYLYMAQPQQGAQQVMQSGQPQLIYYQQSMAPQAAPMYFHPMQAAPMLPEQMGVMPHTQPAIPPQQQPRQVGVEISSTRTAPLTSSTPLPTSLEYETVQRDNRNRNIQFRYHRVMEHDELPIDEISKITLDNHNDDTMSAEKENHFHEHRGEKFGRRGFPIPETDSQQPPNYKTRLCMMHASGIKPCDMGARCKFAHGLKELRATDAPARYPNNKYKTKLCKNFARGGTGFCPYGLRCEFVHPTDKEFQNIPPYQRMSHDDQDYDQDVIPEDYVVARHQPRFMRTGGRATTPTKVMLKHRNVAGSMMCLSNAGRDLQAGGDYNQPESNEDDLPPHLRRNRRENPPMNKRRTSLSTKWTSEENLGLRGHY

[13] = molecular target: 26S proteasome non-ATPase regulatory subunit 14 (Homo sapiens, UniProt O00487); experiment: inhibition of proteasome subunit RPN11 – biochemical, fluorescence polarization, uHTS hits, confirmation (AID 602368); assay type: functional
[14] = molecular target: 72 kDa type IV collagenase (Homo sapiens, UniProt P08253); experiment: Dose Response validation of uHTS RPN11 inhibitor hits using a MMP-2 Fluorescence assay.; assay type: functional
72 kDa type IV collagenase, sequence (P08253 whole entry): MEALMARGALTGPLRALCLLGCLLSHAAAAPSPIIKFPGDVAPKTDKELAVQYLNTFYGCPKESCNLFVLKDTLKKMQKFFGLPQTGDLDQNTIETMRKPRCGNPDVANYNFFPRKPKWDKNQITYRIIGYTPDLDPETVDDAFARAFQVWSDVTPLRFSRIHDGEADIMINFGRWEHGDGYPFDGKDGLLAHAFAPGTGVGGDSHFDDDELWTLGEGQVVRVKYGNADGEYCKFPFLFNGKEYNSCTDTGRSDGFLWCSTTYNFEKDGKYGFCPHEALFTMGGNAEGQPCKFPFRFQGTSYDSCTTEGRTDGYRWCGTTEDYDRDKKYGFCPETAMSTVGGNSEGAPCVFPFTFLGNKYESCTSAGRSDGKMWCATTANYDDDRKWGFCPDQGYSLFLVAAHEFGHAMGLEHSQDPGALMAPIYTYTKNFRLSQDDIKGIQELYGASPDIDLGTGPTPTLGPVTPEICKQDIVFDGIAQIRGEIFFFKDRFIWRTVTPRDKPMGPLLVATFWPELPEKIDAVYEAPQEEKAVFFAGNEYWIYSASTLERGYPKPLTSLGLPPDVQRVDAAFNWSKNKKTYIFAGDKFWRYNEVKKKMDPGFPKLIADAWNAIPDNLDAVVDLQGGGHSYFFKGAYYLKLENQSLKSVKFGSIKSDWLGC

Prothrombin = Prothrombin (Bos taurus, UniProt P00735); experiment: thrombin inhibition, dose response, biochemical, fluorescence polarization, uHTS hits (AID 602369); assay type: functional
[15] = molecular target: Tyrosine-protein phosphatase non-receptor type 11 (Homo sapiens, UniProt Q06124); experiment: SHP2 phosphatase inhibition, dose response, selectivity assay for STEP inhibitor project, biochemical (AID 602367); assay type: functional; conditions: read-out: IC50_Mean
[16] = molecular target: Tyrosine-protein phosphatase non-receptor type 5 (Homo sapiens, UniProt P54829); experiment: STEP phosphatase inhibitors, confirmation, biochemical, fluorescence intensity, uHTS hits (AID 602372); assay type: functional; conditions: read-out: IC50_Mean
Tyrosine-protein phosphatase non-receptor type 5, sequence (P54829 whole entry): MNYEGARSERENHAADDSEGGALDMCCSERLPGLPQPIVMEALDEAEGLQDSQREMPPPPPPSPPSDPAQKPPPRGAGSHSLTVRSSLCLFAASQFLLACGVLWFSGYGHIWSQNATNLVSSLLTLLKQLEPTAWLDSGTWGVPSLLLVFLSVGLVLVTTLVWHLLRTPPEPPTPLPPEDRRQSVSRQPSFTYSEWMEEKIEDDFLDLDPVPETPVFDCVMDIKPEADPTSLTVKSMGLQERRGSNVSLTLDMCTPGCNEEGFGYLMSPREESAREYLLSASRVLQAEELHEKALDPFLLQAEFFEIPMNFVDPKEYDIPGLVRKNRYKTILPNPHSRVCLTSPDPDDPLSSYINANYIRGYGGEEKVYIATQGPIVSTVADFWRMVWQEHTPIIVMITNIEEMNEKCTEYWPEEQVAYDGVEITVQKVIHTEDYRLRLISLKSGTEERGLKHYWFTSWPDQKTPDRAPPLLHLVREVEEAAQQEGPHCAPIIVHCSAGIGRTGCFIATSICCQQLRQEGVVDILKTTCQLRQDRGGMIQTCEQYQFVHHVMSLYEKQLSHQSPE

[17] = molecular target: Dual specificity protein phosphatase 3 (Homo sapiens, UniProt P51452); experiment: VHR phosphatase inhibition, dose response, selectivity assay for STEP inhibitor project, biochemical (AID 602374); assay type: functional; conditions: read-out: IC50_Mean
Dual specificity protein phosphatase 3, sequence (P51452 whole entry, the tested form may be a part): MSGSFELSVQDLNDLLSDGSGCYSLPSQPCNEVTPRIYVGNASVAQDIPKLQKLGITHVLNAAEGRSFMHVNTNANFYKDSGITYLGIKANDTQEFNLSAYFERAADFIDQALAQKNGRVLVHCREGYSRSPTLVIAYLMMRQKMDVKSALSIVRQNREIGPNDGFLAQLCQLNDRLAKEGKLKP

[18] = molecular target: Photoreceptor-specific nuclear receptor (Homo sapiens, UniProt Q9Y5X4); assay type: functional, cell-based;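 also: CHO-S cells with Gal4-NCOR and VP16-NR2E3 two-hybrid luciferase reporter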
[19] = Luminescence Cell-Based Dose Retest to Confirm Inhibitors of Cancer Stem Cells. [Related pubchem assays (depositor defined):AID2717, AID2721]; assay type: functional; conditions: Homo sapiens
[20] = cytotoxicity in HMLE control line with eGFP shRNA, dose response, counter-screen for HMLE_sh_ECad selective toxicity project, cell-based, HMLE_sh_eGFP, luminescence (AID 463074); assay type: functional, Homo sapiens;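 also: HMLE human mammary epithelial cells expressing control shRNA against eGFP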
Melanocortin receptor 4 = Melanocortin receptor 4 (Homo sapiens, UniProt P32245); assay type: functional, cell-based;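 also: Cell-based assay with luminescence read-out, confirmatory dose-response testing for agonist activity of biased ligands at MC4R; human U2OS cells with tagged receptor and beta-arrestin; potency of agonists that increase receptor coupling to beta-arrestin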
Melanocortin receptor 4, sequence (P32245 whole entry): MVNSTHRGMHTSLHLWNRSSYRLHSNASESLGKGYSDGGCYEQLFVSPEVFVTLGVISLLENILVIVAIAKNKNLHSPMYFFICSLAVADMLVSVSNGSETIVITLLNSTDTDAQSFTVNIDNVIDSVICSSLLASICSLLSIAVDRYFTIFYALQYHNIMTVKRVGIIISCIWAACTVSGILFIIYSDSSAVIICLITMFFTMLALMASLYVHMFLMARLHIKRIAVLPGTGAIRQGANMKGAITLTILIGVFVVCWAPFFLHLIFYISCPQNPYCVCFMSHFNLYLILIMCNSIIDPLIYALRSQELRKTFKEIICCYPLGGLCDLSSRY

Hexokinase = molecular target: T5, Hexokinase (Trypanosoma brucei, UniProt Q38C41); experiment: Confirmation assay for inhibitors of Trypanosoma brucei hexokinase 1-Analogue-first series. [Related pubchem assays (depositor defined):AID1430, AID1632, AID2516, AID2560, AID2579, AID2600, AID449725, AID492951]; assay type: functional
T5 sequence (Q38C41 whole entry): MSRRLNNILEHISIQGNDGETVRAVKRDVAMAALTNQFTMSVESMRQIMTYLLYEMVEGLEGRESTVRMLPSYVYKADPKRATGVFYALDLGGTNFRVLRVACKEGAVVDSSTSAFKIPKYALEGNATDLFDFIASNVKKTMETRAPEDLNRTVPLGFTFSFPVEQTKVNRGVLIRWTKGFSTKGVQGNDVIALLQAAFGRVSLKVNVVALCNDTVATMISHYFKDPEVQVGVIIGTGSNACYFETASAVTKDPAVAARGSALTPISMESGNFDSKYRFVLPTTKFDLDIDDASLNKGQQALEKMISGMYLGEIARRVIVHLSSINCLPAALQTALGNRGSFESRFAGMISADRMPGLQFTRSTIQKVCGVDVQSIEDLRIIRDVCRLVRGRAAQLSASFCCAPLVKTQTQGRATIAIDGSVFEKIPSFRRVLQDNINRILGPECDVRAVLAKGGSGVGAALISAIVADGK

[21] = molecular target: Glucose-6-phosphate 1-dehydrogenase (Homo sapiens, UniProt P11413); experiment: human G6PD enzyme inhibitors, dose response, selectivity assay for P. falciparum G6PD inhibitor project, biochemical, fluorescence (AID 504792); assay type: functional
Glucose-6-phosphate 1-dehydrogenase, sequence (P11413 whole entry, the tested form may be a part): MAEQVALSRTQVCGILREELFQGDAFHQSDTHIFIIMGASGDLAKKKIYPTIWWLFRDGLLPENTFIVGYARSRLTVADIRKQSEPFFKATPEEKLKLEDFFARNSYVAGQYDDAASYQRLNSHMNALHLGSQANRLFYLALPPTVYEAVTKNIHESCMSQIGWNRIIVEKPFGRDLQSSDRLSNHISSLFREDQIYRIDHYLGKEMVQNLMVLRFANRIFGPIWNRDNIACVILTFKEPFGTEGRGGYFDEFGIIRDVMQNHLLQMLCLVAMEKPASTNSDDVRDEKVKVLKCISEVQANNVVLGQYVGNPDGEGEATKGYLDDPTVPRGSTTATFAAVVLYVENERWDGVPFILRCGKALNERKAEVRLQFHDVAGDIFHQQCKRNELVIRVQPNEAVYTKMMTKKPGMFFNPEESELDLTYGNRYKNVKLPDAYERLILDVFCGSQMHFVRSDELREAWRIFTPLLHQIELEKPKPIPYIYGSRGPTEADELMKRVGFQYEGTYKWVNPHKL

[22] = Fluorescence-based cell-based high throughput dose response assay for inhibitors of the interaction of nucleotide-binding oligomerization domain containing 2 (NOD2) and the receptor-interacting serine-threonine kinase 2 (RIPK2).; assay type: functional; conditions: Homo sapiens
Caspase-6 = molecular target: T6, Caspase-6 (Homo sapiens, UniProt P55212); experiment: human caspase-6 inhibitors, dose response, biochemical, VEID-R110 fluorescence, cherry-pick (AID 720632)
T6 sequence (P55212 whole entry): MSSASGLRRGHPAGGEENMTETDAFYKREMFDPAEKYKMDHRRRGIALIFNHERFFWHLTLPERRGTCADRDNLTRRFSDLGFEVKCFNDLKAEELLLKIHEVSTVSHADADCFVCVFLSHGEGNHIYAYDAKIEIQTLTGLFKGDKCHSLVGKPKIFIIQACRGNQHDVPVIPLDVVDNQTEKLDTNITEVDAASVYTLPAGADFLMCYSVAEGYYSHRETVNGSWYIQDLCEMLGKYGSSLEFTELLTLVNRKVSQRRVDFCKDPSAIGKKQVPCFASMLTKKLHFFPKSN

Cc1cc(C)c2c(N)c(C(=O)c3ccc(Cl)c(Cl)c3)sc2n1
EC50 [1]: 0.166 µM (active) | EC50 [2]: > 60 µM (not active) | IC50 [3]: 14.2 µM (active) | IC50 [4]: 4.5 µM (active)

CCNP(=S)(OC)O/C(C)=C/C(=O)OC(C)C (stereo not drawn) [PROPETAMPHOS]
AC50 [5]: 50.1 µM (inconclusive)

COc1ccc(NC(=O)CSc2c(C)nn(-c3nnc(C)c(O)n3)c2C)cc1
AC50 [6]: 133 µM (active)

NC(=O)C1CCN(C(=O)COc2ccc3c4c(c(=O)oc3c2)CCCC4)CC1
IC50 [7]: 3.98 µM (active) | IC50 (Steroidogenic factor 1): 4.4 µM (active) | IC50 [8]: 35.9 µM (inactive)

ClN=C1C=CC=CC1=NCl
IC50 [9]: 7.2 µM (active) | AC50 [10]: 4.62 µM (active)

Cc1cc(C)c2c(=O)[nH]c(=O)n(Cc3ccccc3)c2n1
EC50 [11]: > 300 µM (not active) | EC50 [12]: > 300 µM (not active) | IC50 [13]: 38.4 µM (active) | IC50 [14]: > 100 µM (inactive) | IC50 (Prothrombin): 46.6 µM (active)

Cc1nn(CC(=O)Nc2ccc3c(c2)OCCO3)c(C)c1[N+](=O)[O-]
IC50 [7]: 14.3 µM (inactive) | IC50 (Steroidogenic factor 1): 3.1 µM (active) | IC50 [8]: 35.9 µM (inactive)

Cc1ccccc1N1CCN(C(=S)c2ccc(-c3cccc([N+](=O)[O-])c3)o2)CC1
IC50 [15]: 11.3 µM (active) | IC50 [16]: 62.2 µM (inactive) | IC50 [17]: 4.61 µM (active)

COc1ccc([C@@H]2C[C@H]3[C@@H](CN2S(=O)(=O)c2ccccc2)C(=O)C[C@@H](c2cccc(Cl)c2)N3S(=O)(=O)c2ccc(C)cc2)cc1
IC50 [18]: 39.8 µM (inactive)

COc1cc(/C=C2\Oc3ccc(C#Cc4ccc(O)cc4)cc3C2=O)cc(OC)c1
AC50 [19]: 1.41 µM (active) | AC50 [20]: 29.7 µM (active) | EC50 (Melanocortin receptor 4): > 89.2 µM (inactive)

O=C(Cn1sc2ccccc2c1=O)Nc1ccc(Cl)cc1
IC50 (Hexokinase): 12.9 µM (active) | IC50 [21]: 12.5 µM (active) | IC50 [22]: 7.04 µM (active)

CC(C)c1ccc(NS(=O)(=O)c2ccc(-n3cccn3)cc2)cc1
EC50 (Melanocortin receptor 4): > 89.2 µM (inactive)

Cc1nnc(O)nc1N/N=C/c1ccco1
AC50 [6]: 119 µM (active)

COc1ccc(S(=O)(=O)N2CCN(C(=O)C3COc4ccccc4O3)CC2)cc1 (stereo not drawn)
IC50 [9]: 5.82 µM (active) | AC50 (Caspase-6): 0.685 µM (active)

Reference: ChEMBL document CHEMBL1201862, “PubChem BioAssay data set” (2004)
